From PMC7381750, “JP1 suppresses proliferation and metastasis of melanoma through MEK1/2 mediated NEDD4L-SP1-Integrin αvβ3 signaling” (Theranostics, 2020)
“And” between values parts separate entries of the source, which are not always exact repeats. Equal entries are not always repeated. “Also recorded” adds a separate entry of the source. Non-standard residues stand in square brackets, D forms with d. Residues, ends and D or L forms follow the SMILES beside them. pS = N[C@@H](COP(=O)(O)O)C(=O)O

Columns and labels:
LD50 in mouse = details: in vivo
[1] = Cynomolgus monkey toxicity test: body weight; format: in vivo
Procedure: (§1) The test was completed by Suzhou Xishan Zhongke Drugs Research and Development Co., Ltd. (Xishan, Suzhou, China). The study proposal was approved by the Institute Animal Care and Use Committee (IACUC, ID19012912). Cynomolgus monkeys (3-4 years old) were randomly divided into three groups (n = 4 per group, half male and female); and the monkeys were treated with solvent control (Mannitol in saline, 75 mg/kg/d), JP1 (45 mg/kg/day) and JP1 (150 mg/kg/day) for 14 days. The experiment was ended on 15th day and the animals were euthanasia. The relevant clinical parameters were determined on 7th and 13th day, respectively. The observed parameters were including clinical symptoms, weight, food intake, body temperature, ophthalmology, electrocardiogram, blood routine examination, blood biochemistry, blood coagulation, urinalysis, immunotoxicity.
(§2) Supplementary database files: Cynomolgus monkey toxicity test […]
(§3) The study was conducted by a contract service in Suzhou Xishan Zhongke Drugs Research and Development Co., Ltd. (Xishan, Suzhou, China). All the use of animals were approved by the Institute Animal Care and Use Commttee, IACUC. IACUC no. :
(§4) ID19012912. The veterinarian will supervise the breeding and welfare of the animals. The company follows the Guide for the Care and Use of Laboratory Animals (8th ed., 2011).
(§5) Cynomolgus monkeys (3-4 years old) were randomly divided into three groups (n = 4 per group, two males and two females for each group); and treated q.d./i.v. with Mannitol (75 mg/kg/d in saline), JP1 (45 mg/kg/d) and JP1 (150 mg/kg/d) for 14 days, respectively. JP1 was dissolved in saline (100 mg/2 ml) and administered intravenously at a rate of 3 ml/min.
(§6) The JP1 was provided by Hybio Pharmaceutical Co., Ltd. (Shenzhen, China); the production of small packaging preparation (100 mg/vial in freeze-dried powder, purity > 98%; -20 °C for storage and transportation) was completed under strict GMP conditions and quality control procedures for biological preparations. No recovery period was set for this test; the experimental model was ended on 15th day. […]
(§7) relevant clinical indicators in two JP1 groups were no difference compared with those in […]
(§8) Level (NOAEL) of JP1 was 150 mg/kg.

[2] = Cynomolgus monkey toxicity test: blood coagulation; format: in vivo
Procedure: as §1, §2, §3, §4, §5
as §6, with “day. The relevant clinical indicators including symptoms, body weight, food intake, temperature, ophthalmology, electrocardiogram, blood routine examination, blood biochemistry, blood coagulation, urinalysis, immunotoxicity were determined on 7th and 13th, respectively.” for “day.”
(§9) indicators in all animals, and the pathological observation of organs was not determined. […]
as §7, §8

[3] = Cynomolgus monkey toxicity test: urinalysis; format: in vivo
Procedure: as §1, §2, §3, §4, §5
as §6, with “day. The relevant clinical indicators including symptoms, body weight, food intake, temperature, ophthalmology, electrocardiogram, blood routine examination, blood biochemistry, blood coagulation, urinalysis, immunotoxicity were determined on 7th and 13th, respectively.” for “day.”
as §9, §7, §8

[4] = JP1 45 mg/kg/d i.v., D7, monkeys 1105,1106,2107,2108, 45 mg/kg/day
[5] = JP1 150 mg/kg/d i.v., D7, monkeys 1209,1210,2211,2212, 150 mg/kg/day
[6] = JP1 45 mg/kg/d i.v., D13, monkeys 1105,1106,2107,2108, 45 mg/kg/day
[7] = JP1 150 mg/kg/d i.v., D13, monkeys 1209,1210,2211,2212, 150 mg/kg/day
[8] = JP1 45 mg/kg/d i.v., D7, monkeys 1105,1106,2107,2108
[9] = JP1 45 mg/kg/d i.v., D13, monkeys 1105,1106,2107,2108
[10] = JP1 150 mg/kg/d i.v., D7, monkeys 1209,1210,2211,2212
[11] = JP1 150 mg/kg/d i.v., D13, monkeys 1209,1210,2211,2212

## CC(=O)N[C@@H](Cc1ccccc1)C(=O)N1CCC[C@H]1C(=O)NCC(=O)N[C@@H](COP(=O)(O)O)C(=O)N[C@@H](CC(=O)O)C(=O)N[C@@H](CCCNC(=N)N)C(=O)N[C@@H](Cc1ccccc1)C(=O)NCC(=O)NCC(=O)NCC(=O)NCC(=O)N[C@@H](CCCNC(=N)N)C(=O)NCC(=O)N[C@@H](CC(=O)O)C(N)=O [JP1] (Ac-FPG[pS]DRFGGGGRGD-NH2)
LD50 in mouse
  LD50: > 5000 mg/kg
[1]; [4]
  Body weight: 2.1 kg and 2.2 kg and 2.3 kg
[1]; JP1 45 mg/kg/d i.v., D14, monkeys 1105,1106,2107,2108, 45 mg/kg/day
  Body weight: 2.5 kg and 2.4 kg
[1]; [5]
  Body weight: 2.4 kg and 2.2 kg and 2.3 kg
[1]; JP1 150 mg/kg/d i.v., D14, monkeys 1209,1210,2211,2212, 150 mg/kg/day
  Body weight: 2.2 kg and 2.3 kg and 2.6 kg
[2]; [4]
  APTT: 23.2 s and 28.0 s and 25.5 s and 25.1 s
  FIB: 2.59 g/L and 2.84 g/L and 2.33 g/L and 2.34 g/L
  PT: 11.8 s and 11.0 s and 12.2 s and 11.9 s
[2]; [6]
  APTT: 25.3 s and 24.6 s and 24.2 s and 22.6 s
  FIB: 3.02 g/L and 2.81 g/L and 2.68 g/L and 2.51 g/L
  PT: 11.7 s and 12.2 s and 10.9 s
[2]; [5]
  APTT: 23.7 s and 25.2 s and 33.8 s and 27.7 s
  FIB: 2.71 g/L and 3.21 g/L and 2.66 g/L and 2.89 g/L
  PT: 11.8 s and 12.5 s and 11.7 s and 12.0 s
[2]; [7]
  APTT: 23.5 s and 24.9 s and 29.9 s and 27.8 s
  FIB: 2.90 g/L and 2.99 g/L and 2.97 g/L and 3.27 g/L
  PT: 11.9 s and 12.4 s and 11.8 s and 11.7 s
[3]; [8]
  GLU (urine): NORMAL
  URO (Urobilinogen): NORMAL
[3]; [4]
  COL (urine): COLORLESS; also recorded: YELLOW
  SG (Urine specific gravity): 1.004 and 1.005 and 1.008 and 1.012
  pH (urine): 8.0 and 8.5
[3]; [9]
  COL (urine): COLORLESS
  GLU (urine): NORMAL
  URO (Urobilinogen): NORMAL
[3]; [6]
  SG (Urine specific gravity): 1.006 and 1.007 and 1.009
  pH (urine): 7.5 and 8.0 and 8.5
[3]; [10]
  GLU (urine): NORMAL
  URO (Urobilinogen): NORMAL
[3]; [5]
  COL (urine): LIGHT YELLOW; also recorded: COLORLESS
  SG (Urine specific gravity): 1.002 and 1.009 and 1.020 and 1.006
  pH (urine): 7.5 and 8.5
[3]; [11]
  GLU (urine): NORMAL
  LEU (Urine leukocyte): NEG.
  URO (Urobilinogen): NORMAL
[3]; [7]
  COL (urine): COLORLESS; also recorded: LIGHT YELLOW
  SG (Urine specific gravity): 1.004 and 1.013 and 1.005 and 1.009
  pH (urine): 8.0 and 8.5 and 7.5
